Experimental data reported in publication PMC3080024 (Synapse (New York, N.Y.), 2010).
Values joined by “and” are separate entries in the source; they are usually repeats but may differ in a detail not shown here. Equal values may be shown once. Read-outs that look alike come from different tables or passages of the source. Each block holds one molecule with its values, some of them ahead of it.

Legend:
[1] = Cerebellar kinetics by PET, single-tissue compartment model; conditions: for cerebellar clearance rate, slow component: exponential fit, t > 30 minutes
[2] = ref Pike et al., 2000; Saigal et al., 2006; cited from earlier work
[3] = Arterial plasma kinetics of parent radiotracer; conditions: for fraction of radioactivity in the plasma due to parent radiotracer: 30 minutes after injection; for clearance rate from the arterial plasma: after period of rapid clearance (>30 minutes), bolus injection
[4] = biological target: T1, 5-HT1A receptor (Macaca mulatta, UniProt F7GIU0); type: in vivo, rhesus monkey
T1 sequence (F7GIU0 1-421): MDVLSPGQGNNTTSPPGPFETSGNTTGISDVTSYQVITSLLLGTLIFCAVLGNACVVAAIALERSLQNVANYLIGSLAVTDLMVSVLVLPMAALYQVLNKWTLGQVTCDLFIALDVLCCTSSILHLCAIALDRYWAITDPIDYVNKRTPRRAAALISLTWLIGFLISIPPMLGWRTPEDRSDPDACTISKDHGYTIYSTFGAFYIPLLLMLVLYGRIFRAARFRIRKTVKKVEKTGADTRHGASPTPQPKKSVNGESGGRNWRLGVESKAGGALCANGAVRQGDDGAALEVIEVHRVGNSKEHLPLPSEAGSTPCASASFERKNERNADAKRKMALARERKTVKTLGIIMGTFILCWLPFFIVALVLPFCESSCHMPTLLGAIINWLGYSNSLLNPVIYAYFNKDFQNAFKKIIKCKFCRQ

[5] = system: 5-HT1A receptor sites; assay: Estimated occupancy by unlabeled ligand mass in the PET studies; type: in vivo, rhesus monkey; conditions: for occupancy of the unlabeled drug: comparable ED50 assumed; for occupancy at the 5-HT1A receptor sites: estimated from rat ED50
[6] = system: 5-HT1A receptor; conditions: ref Saigal et al., 2006, cited from earlier work
[7] = rhesus monkey, previous measurements; ref Saigal et al., 2006; cited from earlier work
[8] = system: p-glycoprotein (Pgp); conditions: cited from earlier work

- DVND (nondisplaceable distribution volume, K1/k2) ([1]; cerebellum, mean over subjects): 2.62
- DVND (nondisplaceable distribution volume, K1/k2) ([1]; cerebellum, subject M1): 2.55
- DVND (nondisplaceable distribution volume, K1/k2) ([1]; cerebellum, subject M3): 2.62
- DVND (nondisplaceable distribution volume, K1/k2) ([1]; cerebellum, subject M4): 2.70
- cerebellar clearance rate, slow component [1]: 0.014 min⁻¹
- K1 in the cerebellum ([1]; mean over subjects): 0.74 mL/min/mL
- k2 in the cerebellum ([1]; mean over subjects): 0.28 min⁻¹
- K1 in the cerebellum ([1]; subject M1): 0.51 mL/min/mL
- k2 in the cerebellum ([1]; subject M1): 0.20 min⁻¹
- K1 in the cerebellum ([1]; subject M3): 1.10 mL/min/mL
- k2 in the cerebellum ([1]; subject M3): 0.42 min⁻¹
- K1 in the cerebellum ([1]; subject M4): 0.62 mL/min/mL
- k2 in the cerebellum ([1]; subject M4): 0.23 min⁻¹
- fraction of radioactivity in the plasma due to parent radiotracer [3]: 29%
- clearance rate from the arterial plasma [3]: 0.0069 min⁻¹
- BPND ([4]; ACG, mean over subjects): 7.9±1.2 and 7.92
- BPND ([4]; ACG, subject M1): 6.90
- BPND ([4]; ACG, subject M3): 7.64
- BPND ([4]; ACG, subject M4): 9.21
- BPND ([4]; IC, mean over subjects): 4.7±1.0 and 4.65
- BPND ([4]; IC, subject M1): 4.08
- BPND ([4]; IC, subject M3): 4.11
- BPND ([4]; IC, subject M4): 5.77
- BPND ([4]; MTC, mean over subjects): 7.0±1.2 and 7.00
- BPND ([4]; MTC, subject M1): 5.97
- BPND ([4]; MTC, subject M3): 8.37
- BPND ([4]; MTC, subject M4): 6.66
- BPND ([4]; RN, mean over subjects): 3.3±0.7 and 3.27
- BPND ([4]; RN, subject M1): 3.97
- BPND ([4]; RN, subject M3): 2.66
- BPND ([4]; RN, subject M4): 3.17
SMILES: COc1ccccc1N1CCN(CCN(C(=O)C2CCCCC2)c2ccccn2)CC1 [[C-11]WAY100635, [Carbonyl-C-11]N-(2-(1-(4-(2-Methoxyphenyl)-piperazinyl)ethyl)-N-pyridinyl) cyclohexanecarboxamide]
- logP [2]: 3.28

SMILES: COc1ccccc1N1CCN(CCN(C(=O)C2CCC(C[18F])CC2)c2ccccn2)CC1 (stereo not shown) [[F-18]mefway, N-{2-[4-(2-methoxyphenyl)piperazinyl]ethyl}-N-(2-pyridyl)-N-(4-[F-18]-fluoromethylcyclohexane)carboxamide]
- DVND (nondisplaceable distribution volume, K1/k2) ([1]; cerebellum, mean over subjects): 4.02
- DVND (nondisplaceable distribution volume, K1/k2) ([1]; cerebellum, subject M1): 4.92
- DVND (nondisplaceable distribution volume, K1/k2) ([1]; cerebellum, subject M2): 3.53
- DVND (nondisplaceable distribution volume, K1/k2) ([1]; cerebellum, subject M3): 4.22
- DVND (nondisplaceable distribution volume, K1/k2) ([1]; cerebellum, subject M4): 3.41
- cerebellar clearance rate, slow component [1]: 0.010 min⁻¹
- K1 in the cerebellum ([1]; mean over subjects): 1.02 mL/min/mL
- k2 in the cerebellum ([1]; mean over subjects): 0.27 min⁻¹
- K1 in the cerebellum ([1]; subject M1): 0.59 mL/min/mL
- k2 in the cerebellum ([1]; subject M1): 0.12 min⁻¹
- K1 in the cerebellum ([1]; subject M2): 1.34 mL/min/mL
- k2 in the cerebellum ([1]; subject M2): 0.38 min⁻¹
- K1 in the cerebellum ([1]; subject M3): 1.14 mL/min/mL
- k2 in the cerebellum ([1]; subject M3): 0.27 min⁻¹
- K1 in the cerebellum ([1]; subject M4): 0.99 mL/min/mL
- k2 in the cerebellum ([1]; subject M4): 0.29 min⁻¹
- logP [2]: 2.62
- occupancy of the unlabeled drug [5]: less than 3%
- displacement of binding ([6]; competition of 10 μM of WAY100635): almost completely displaced
- fraction of radioactivity in the plasma due to parent radiotracer [3]: 19%
- clearance rate from the arterial plasma [3]: 0.0031 min⁻¹
- BPND ([4]; ACG, mean over subjects): 7.2±1.2
- BPND ([4]; ACG, mean over subjects, listed as [F-18]MEFWAY): 7.15
- BPND ([4]; ACG, subject M1): 6.92
- BPND ([4]; ACG, subject M2): 7.00
- BPND ([4]; ACG, subject M3): 5.87
- BPND ([4]; ACG, subject M4): 8.82
- BPND ([4]; IC, mean over subjects): 4.2±0.6
- BPND ([4]; IC, mean over subjects, listed as [F-18]MEFWAY): 4.16
- BPND ([4]; IC, subject M1): 4.51
- BPND ([4]; IC, subject M2): 3.57
- BPND ([4]; IC, subject M3): 3.72
- BPND ([4]; IC, subject M4): 4.83
- BPND ([4]; MTC, mean over subjects): 7.4±0.6
- BPND ([4]; MTC, mean over subjects, listed as [F-18]MEFWAY): 7.36
- BPND ([4]; MTC, subject M1): 7.23
- BPND ([4]; MTC, subject M2): 8.25
- BPND ([4]; MTC, subject M3): 7.17
- BPND ([4]; MTC, subject M4): 6.77
- plateau of target to CB ratio ([4]; MTC, total time of acquisition): a plateau is not reached within the total time of acquisition
- BPND ([4]; RN, mean over subjects): 3.7±0.6
- BPND ([4]; RN, mean over subjects, listed as [F-18]MEFWAY): 3.69
- BPND ([4]; RN, subject M1): 4.06
- BPND ([4]; RN, subject M2): 4.00
- BPND ([4]; RN, subject M3): 2.85
- BPND ([4]; RN, subject M4): 3.84
- time to plateau of target to CB ratio ([4]; high uptake regions, 2 hour scanning period): > 2 h
- fraction of radiolabeled lipophilic metabolites [7]: < 10%

- occupancy at the 5-HT1A receptor sites ([5]; M1, injected mass 1.0 nmol/kg): 18%
- occupancy at the 5-HT1A receptor sites ([5]; M4, injected mass 0.7 nmol/kg): 13%
SMILES: COc1ccccc1N1CCN(CCN(C(=O)C2CCCCC2)c2ccccn2)CC1 [WAY100635]
- Pgp substrate ([8]; not told): Neither mefway nor WAY100635 have been found to be Pgp substrates

SMILES: COc1ccccc1N1CCN(CCN(C(=O)c2ccc(F)cc2)c2ccccn2)CC1 [[F-18]MPPF, 4-Fluoro-N-[2-[4-(2-methoxyphenyl)piperazin-1-yl]ethyl]-N-pyridin-2-ylbenzamide]
- cerebellar clearance rate, slow component [1]: 0.011 min⁻¹
- K1 in the cerebellum ([1]; mean over subjects): 1.00 mL/min/mL
- k2 in the cerebellum ([1]; mean over subjects): 0.34 min⁻¹
- Kp ([1]; rhesus monkey, in vivo, DVND (nondisplaceable distribution volume, K1/k2), cerebellum, subject M4): 2.89
- K1 in the cerebellum ([1]; subject M2): 0.90 mL/min/mL
- k2 in the cerebellum ([1]; subject M2): 0.29 min⁻¹
- K1 in the cerebellum ([1]; subject M3): 1.32 mL/min/mL
- k2 in the cerebellum ([1]; subject M3): 0.45 min⁻¹
- K1 in the cerebellum ([1]; subject M4): 0.78 mL/min/mL
- k2 in the cerebellum ([1]; subject M4): 0.27 min⁻¹
- occupancy of the unlabeled drug [5]: less than 3%
- Pgp substrate ([8]; ref Passchier et al., 2000): substrate for p-glycoprotein (Pgp)
- fraction of radioactivity in the plasma due to parent radiotracer [3]: 28%
- clearance rate from the arterial plasma [3]: 0.0078 min⁻¹
- BPND ([4]; ACG, mean over subjects): 2.1±0.2 and 2.12
- BPND ([4]; ACG, subject M1): 2.05
- BPND ([4]; ACG, subject M2): 2.19
- BPND ([4]; ACG, subject M3): 1.93
- BPND ([4]; ACG, subject M4): 2.30
- time to plateau of target to CB ratio (pseudoequilibrium) ([4]; IC (intermediate binding)): approximately 20 minutes
- BPND ([4]; IC, mean over subjects): 1.2±0.1 and 1.15
- BPND ([4]; IC, subject M1): 1.24
- BPND ([4]; IC, subject M2): 1.11
- BPND ([4]; IC, subject M3): 0.98
- BPND ([4]; IC, subject M4): 1.28
- BPND ([4]; MTC, mean over subjects): 3.1±0.4 and 3.14
- BPND ([4]; MTC, subject M1): 3.01
- BPND ([4]; MTC, subject M2): 3.67
- BPND ([4]; MTC, subject M3): 2.99
- BPND ([4]; MTC, subject M4): 2.88
- BPND ([4]; RN, mean over subjects): 1.3±0.3 and 1.34
- BPND ([4]; RN, subject M1): 1.49
- BPND ([4]; RN, subject M2): 1.71
- BPND ([4]; RN, subject M3): 0.98
- BPND ([4]; RN, subject M4): 1.18
- time to plateau of target to CB ratio (pseudoequilibrium) ([4]; high binding regions): approximately 30 minutes

SMILES: COc1ccccc1N1CCN(CCN(C(=O)C2CCC(CF)CC2)c2ccccn2)CC1 (stereo not shown) [mefway]
- Pgp substrate ([8]; no reference given): Neither mefway nor WAY100635 have been found to be Pgp substrates
- IC50 ([6]; against [F-18]mefway): 25.7 nM
